In patent US20170333560A1, “Pharmaceutical Composition That Includes A Neutral Carrier Treated With Energy And Related Methods Of Treatment” (priority 2016, published 2017):

Key:
[1] = test system: obsessive-compulsive disorder with prevailing anxiety disorders; assay: Study versus Diazepam in obsessive-compulsive disorder (HAM-A, STAI, SAN); format: in vivo, human
Protocol: A study was conducted to examine the efficacy of the claimed drug, formulated as a water solution (liquid dosage form) of the activated (potentized) energy-treated carrier, obtained by multiple consecutive dilution of the initial matrix solution in an aqueous-alcoholic diluent, combined with external mechanical impact—shaking of each resulting dilution, to a degree of 100^200, equivalent to a centesimal (C200) homeopathic dilution (wherein the energy treatment of the initial neutral carrier has been accomplished by exposing it to an electric current caused by a difference of potentials being applied to electrodes placed in the initial liquid carrier and which is proportional in amplitude to an amplified combined, summed signal, formed by summing the resultant signals—biopotential differences of individual referential derivations recorded in five healthy donors using the internationally recognized 10-20 system, which involves 19 active recording electrodes placed in regular positions all over the scalp and one reference electrode located on the ear-lobe)—further referred to as AP drug—in treating obsessive-compulsive disorder.
The tolerability and anxiolytic efficacy of AP drug was examined versus Diazepam in patients with obsessive-compulsive disorder with prevailing anxiety disorders. Inclusion criteria: • 1. Subjects aged from 18 to 65 years. • 2. Subjects meeting the obsessive-compulsive disorder criteria (ICD-10 code F42). • 3. Subjects receiving no treatment with psychoactive agents at least for a week before and at the time of the trial.
The study included 20 patients (8 men and 12 women) aged between 19 and 62 years old. The mean patient age and mean duration of disease were 38.0±1.6 years and 2.1±0.5 years, respectively.
The duration of treatment was […]. The patients randomized to AP drug (45) received it at a dose of 20 drops 4 times daily; the rest 35 patients were assigned to receive Diazepam at 15 mg daily.
The patients were assessed for OCD symptom severity at baseline (day 0) and at days 7, 14, and 28.

[2] = test system: depression in patients with post-traumatic stress disorders; assay: Comparative trial versus Heptral in stress-related depression (HAM-D, HADS, CGI); format: in vivo, human; set-up: CGI Efficacy Index / CGI Severity scale total score / CGI Improvement scale total score: scale not given here
Protocol: A randomized, […] study was conducted to examine the efficacy and safety of the claimed drug, formulated as a solid dosage form containing lactose granules impregnated with water-alcohol solution of the liquid activated (potentized) energy-treated carrier, obtained by multiple consecutive dilution of the initial matrix solution in an aqueous-alcoholic diluent, combined with external mechanical impact—shaking of each resulting dilution, to a degree of 100^200, equivalent to a centesimal (C200) homeopathic dilution (wherein the energy treatment of the initial liquid carrier has been accomplished by exposing it to an electric current caused by a difference of potentials being applied to electrodes placed in the initial liquid carrier and which is proportional in amplitude to an amplified combined, summed signal, formed by summing the resultant signals—biopotential differences of individual referential derivations recorded in five healthy donors using the internationally recognized 10-20 system, which involves 19 active recording electrodes placed in regular positions all over the scalp and one reference electrode located on the ear-lobe)—further referred to as AP drug, where it was used for treating depression in patients with post-traumatic stress disorders.
AP drug was administered to manage the depressive symptoms—in parallel to Heptral (adametionine), used as a comparator in efficacy assessment. AP drug was administered for 4 weeks at a dose of 2 tablets 4 times daily. Heptral was used at 400 mg 3 times (1200 mg) daily.
An open comparative clinical trial was performed which involved 30 patients (16 men and 14 women) assigned to two parallel groups: 15 patients in the group of AP drug and 15 in the heptral group. The mean age of participants assigned to AP drug was 38.0±4.39 years;
The period of study participation was 8 weeks (the total treatment duration of 4 weeks and 4 weeks of follow-up).
Neither of the patient groups was allowed to take psychoactive medications during the study. The drugs not prohibited for use during the treatment were medications for the underlying traumatic illness and co-existing somatic disorders. The study enrolled inpatients aged from 18 to 65 years old, who had been receiving medical attention for bodily injuries resulting from car accidents, which had taken place under circumstances threatening the life or welfare of the patient or/and their friends or family members suffering from anxiety mental disorders, such as (defined by the ICD-10) reaction to severe stress, and adjustment disorders (F43); adjustment disorders (F43.2); adjustment disorder with mixed anxiety and depressed mood (F43.23).
1. Reduced severity of depressive symptoms and signs as measured by the HADS. 2. Reduced severity of depressive symptoms and signs as measured by the HAM-D 3. Efficacy Index assessment on the Clinical Global Impression (CGI) scale.
The patients' mental health was examined at baseline—at admission to the clinic, following 1, 2 and 4 weeks of treatment, and 4 weeks after treatment discontinuation (follow-up).
The effect of study treatment was evaluated according to changes in the total HAM-D score and scoring outcomes on the HADS anxiety and depression subscales. In addition, the Clinical Global Impression scale was administered to primarily estimate the Efficacy Index for the treatment conducted.

CN1C(=O)CN=C(c2ccccc2)c2cc(Cl)ccc21 [Diazepam]
HAM-A scores ([1]; Day 7): 19.02 | HAM-A scores ([1]; Day 14): 12.93 | Average reduction of HAM-A scores ([1]; at 28 days): 70.2% | Percentage of patients exhibiting treatment response (50% reduction of mean HAM-A score and over) ([1]; at 28 days): 100% | Mean SAN score ([1]; at treatment completion): 3.6 | Occurrence of adverse reactions ([1]; throughout the study): 82.9% | Reduction in trait anxiety scores (STAI) ([1]; treatment completion): 22.3% | Reduction of situational anxiety (STAI) scores ([1]; treatment completion): 29.6%

C[S+](CC[C@H](N)C(=O)[O-])C[C@H]1O[C@@H](n2cnc3c(N)ncnc32)[C@H](O)[C@@H]1O (stereo partly shown) [Heptral, adametionine]
CGI Severity scale total score ([2]; Visit 1 (baseline)): 3.8 ± 0.17 | Total HADS depression score ([2]; Visit 1 (baseline), n = 15): 17.5 | Total HAM-D score ([2]; Visit 1 (baseline), n = 15): 26.2 | CGI Efficacy Index ([2]; Visit 2 (week 1)): 1.1 ± 0.08 | CGI Improvement scale total score ([2]; Visit 2 (week 1)): 2.9 ± 0.07 | CGI Severity scale total score ([2]; Visit 2 (week 1)): 2.9 ± 0.12 | Total HADS depression score ([2]; Visit 2 (week 1)): 13.2 | Total HAM-D score ([2]; Visit 2 (week 1)): 23.1 | CGI Efficacy Index ([2]; Visit 3 (week 2)): 1.8 ± 0.19 | CGI Improvement scale total score ([2]; Visit 3 (week 2)): 2.1 ± 0.15 | CGI Severity scale total score ([2]; Visit 3 (week 2)): 1.9 ± 0.12 | Total HADS depression score ([2]; Visit 3 (week 2)): 9.6 | Total HAM-D score ([2]; Visit 3 (week 2)): 15.6 | CGI Efficacy Index ([2]; Visit 4 (week 4)): 2.3 ± 0.18 | CGI Improvement scale total score ([2]; Visit 4 (week 4)): 1.2 ± 0.11 | CGI Severity scale total score ([2]; Visit 4 (week 4)): 1.1 ± 0.07 | Total HADS depression score ([2]; Visit 4 (week 4)): 6.5 | Total HAM-D score ([2]; Visit 4 (week 4)): 14.1 | CGI Efficacy Index ([2]; Visit 5 (follow-up)): 2.3 ± 0.18 | CGI Improvement scale total score ([2]; Visit 5 (follow-up)): 1.1 ± 0.07 | CGI Severity scale total score ([2]; Visit 5 (follow-up)): 1.0 ± 0.00 | Total HADS depression score ([2]; Visit 5 (follow-up)): 3.5 | Total HAM-D score ([2]; Visit 5 (follow-up)): 12.1 | Adverse event anxiety worsening ([2]; group of 15): 2 patients | Adverse event dizziness ([2]; group of 15): 5 patients | Adverse event headache ([2]; group of 15): 3 patients
